Reference: patent publication US9090628B2, “Benzoxazepin compounds selective for PI3K P110 delta and methods of use” (GENENTECH, INC., priority 2011, dated 2015)

How the values were obtained:
p110 delta = p110 delta (Homo sapiens (Human), UniProt O00329); assay: PI3K isoform inhibition assay, p110 delta (fluorescence polarization displacement); assay type: biochemical
Experimental: (§1) PI3K enzymatic activity was assayed by measuring the amount of product phosphatidylinositol 3,4,5-phosphate (PIP3) formed from substrate 4,5 phosphatidylinositol 4,5-phosphate (PIP2) using a fluorescence polarization displacement assay. The decrease in fluorescence polarization of a fluorescent PIP3 probe is measured as it is displaced from a PIP3-binding protein GRP-1 detector by PI3K-catalyzed product. […] The kinase reactions were initiated by the addition of 40 ng/mL p110α/p85α, 300 ng/mL p110β/p85α, 40 ng/mL p110γ, or 40 ng/mL p110δ/p85α (Upstate Group, Millipore; Dundee, UK), and 10 μM PIP2 (Echelon Biosciences) to the wells. […] After 60 minutes of incubation at room temperature to allow equilibration of labeled and unlabeled PIP3 binding, the parallel and perpendicular components of the fluorescence emissions from each sample were measured at an excitation wavelength of 530 nm and an emission wavelength of 590 nm using an Envision fluorescent plate reader with a rhodamine filter (PerkinElmer Life and Analytical Sciences; Wellesley, Mass.). The assay is capable of detecting 0.1-2.0 μM PIP3 product. The IC50 values were obtained by fitting the dose-dependent inhibition data to a 4-parameter equation using Assay Explorer software (MDL, San Ramon, Calif.).
The Formula I compound was serially diluted in 100% DMSO. The kinase reaction was incubated for 1 h at room temperature, and the reaction was terminated by the addition of PBS. IC50 values were subsequently determined using sigmoidal dose-response curve fit (variable slope).
(§2) The four Class I PI 3-kinases are cloned into baculovirus vectors as follows: […]

p110 alpha = p110 alpha (Homo sapiens (Human), UniProt P42336); assay: PI3K isoform inhibition assay, p110 alpha (for alpha/delta selectivity); details: ratio of biochemical IC50 values
Sequence of p110 alpha (P42336 whole entry, canonical isoform): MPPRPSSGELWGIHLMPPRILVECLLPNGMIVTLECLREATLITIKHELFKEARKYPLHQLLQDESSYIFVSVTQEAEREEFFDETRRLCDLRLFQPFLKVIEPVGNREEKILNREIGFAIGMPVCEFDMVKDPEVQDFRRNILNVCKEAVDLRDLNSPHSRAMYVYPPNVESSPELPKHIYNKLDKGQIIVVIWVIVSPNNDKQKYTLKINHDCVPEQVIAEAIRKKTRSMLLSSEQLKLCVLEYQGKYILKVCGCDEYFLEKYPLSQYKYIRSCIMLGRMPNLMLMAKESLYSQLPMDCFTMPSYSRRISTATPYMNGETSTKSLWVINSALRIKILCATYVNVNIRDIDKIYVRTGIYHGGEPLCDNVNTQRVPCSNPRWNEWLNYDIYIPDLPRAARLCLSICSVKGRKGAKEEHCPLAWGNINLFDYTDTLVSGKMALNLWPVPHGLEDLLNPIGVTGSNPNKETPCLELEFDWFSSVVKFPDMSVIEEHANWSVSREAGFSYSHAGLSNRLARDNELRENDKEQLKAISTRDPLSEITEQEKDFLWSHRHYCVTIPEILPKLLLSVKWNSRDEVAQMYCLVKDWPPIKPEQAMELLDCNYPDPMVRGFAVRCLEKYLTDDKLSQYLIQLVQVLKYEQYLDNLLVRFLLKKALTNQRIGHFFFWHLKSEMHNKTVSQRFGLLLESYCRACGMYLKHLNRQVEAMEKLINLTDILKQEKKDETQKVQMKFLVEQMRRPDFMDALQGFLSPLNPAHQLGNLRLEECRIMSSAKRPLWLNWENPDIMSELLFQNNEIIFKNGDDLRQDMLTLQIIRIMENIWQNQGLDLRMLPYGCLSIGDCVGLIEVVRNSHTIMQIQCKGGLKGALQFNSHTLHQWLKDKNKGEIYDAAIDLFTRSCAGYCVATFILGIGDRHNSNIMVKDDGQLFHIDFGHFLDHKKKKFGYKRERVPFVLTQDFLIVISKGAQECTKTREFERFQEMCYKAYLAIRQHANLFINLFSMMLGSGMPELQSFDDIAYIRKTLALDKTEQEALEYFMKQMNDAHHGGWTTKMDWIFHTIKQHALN
Sequence of p110 alpha (P27986 whole entry partner, canonical isoform): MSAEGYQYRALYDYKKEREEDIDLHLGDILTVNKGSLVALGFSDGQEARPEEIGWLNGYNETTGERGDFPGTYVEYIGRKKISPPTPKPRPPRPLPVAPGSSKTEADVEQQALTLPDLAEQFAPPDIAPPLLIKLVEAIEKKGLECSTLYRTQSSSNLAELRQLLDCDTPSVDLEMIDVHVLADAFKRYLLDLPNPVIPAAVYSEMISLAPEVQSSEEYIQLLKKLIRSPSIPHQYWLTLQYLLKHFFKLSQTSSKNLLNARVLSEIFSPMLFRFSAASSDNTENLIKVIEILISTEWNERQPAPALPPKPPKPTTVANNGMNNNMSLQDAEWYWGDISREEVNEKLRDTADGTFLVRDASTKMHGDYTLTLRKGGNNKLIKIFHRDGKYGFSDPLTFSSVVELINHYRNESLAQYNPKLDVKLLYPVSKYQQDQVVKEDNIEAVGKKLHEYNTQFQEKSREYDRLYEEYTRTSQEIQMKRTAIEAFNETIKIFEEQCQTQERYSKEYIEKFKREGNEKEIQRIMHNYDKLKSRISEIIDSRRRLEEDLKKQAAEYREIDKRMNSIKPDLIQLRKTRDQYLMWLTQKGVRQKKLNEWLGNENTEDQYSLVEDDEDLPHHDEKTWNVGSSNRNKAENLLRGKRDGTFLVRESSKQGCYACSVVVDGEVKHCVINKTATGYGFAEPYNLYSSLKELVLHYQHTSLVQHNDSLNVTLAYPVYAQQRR
Experimental: as §1
The same protocol may be used to establish IC50 values for p110α (alpha) PI3K binding.
as §2

Sequence of p110 delta (O00329 whole entry, canonical isoform): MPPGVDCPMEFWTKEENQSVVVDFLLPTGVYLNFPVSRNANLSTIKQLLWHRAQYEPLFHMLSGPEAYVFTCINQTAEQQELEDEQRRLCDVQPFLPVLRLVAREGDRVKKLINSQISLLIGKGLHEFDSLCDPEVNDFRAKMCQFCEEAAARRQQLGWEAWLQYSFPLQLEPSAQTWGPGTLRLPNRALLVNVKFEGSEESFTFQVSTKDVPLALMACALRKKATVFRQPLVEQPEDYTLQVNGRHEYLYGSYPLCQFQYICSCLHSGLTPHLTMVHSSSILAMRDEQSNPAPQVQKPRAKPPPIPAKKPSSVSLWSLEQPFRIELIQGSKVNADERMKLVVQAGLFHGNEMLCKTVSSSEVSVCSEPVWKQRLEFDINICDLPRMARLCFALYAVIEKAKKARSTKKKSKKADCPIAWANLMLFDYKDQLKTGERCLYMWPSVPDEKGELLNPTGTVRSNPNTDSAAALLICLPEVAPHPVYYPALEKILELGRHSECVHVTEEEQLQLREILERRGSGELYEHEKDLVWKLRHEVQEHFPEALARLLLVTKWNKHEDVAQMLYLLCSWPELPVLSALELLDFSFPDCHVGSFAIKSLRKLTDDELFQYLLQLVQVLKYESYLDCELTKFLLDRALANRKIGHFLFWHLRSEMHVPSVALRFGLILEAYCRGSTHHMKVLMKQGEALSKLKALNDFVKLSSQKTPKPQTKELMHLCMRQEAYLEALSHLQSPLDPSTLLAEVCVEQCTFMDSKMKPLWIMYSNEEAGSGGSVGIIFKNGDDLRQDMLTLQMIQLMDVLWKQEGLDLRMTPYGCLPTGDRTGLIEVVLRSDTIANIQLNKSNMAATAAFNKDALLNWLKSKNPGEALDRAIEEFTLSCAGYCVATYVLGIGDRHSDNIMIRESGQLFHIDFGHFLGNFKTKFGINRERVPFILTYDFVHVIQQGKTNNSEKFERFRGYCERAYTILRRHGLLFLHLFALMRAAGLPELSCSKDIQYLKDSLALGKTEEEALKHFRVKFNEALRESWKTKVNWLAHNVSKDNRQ
Sequence of p110 delta (P27986 whole entry partner, canonical isoform): as the sequence (P27986 whole entry partner, canonical isoform) above

Row | Structure (SMILES) | IC50 (p110 delta) [nM] | IC50 p110 alpha/IC50 p110 delta (p110 alpha)
1 | Cc1nc(-c2cn3c(n2)-c2ccc(OC4(CC(C)C)CN(C(C)C)C4)cc2OCC3)n(C(C)C)n1 [Example 301, 9-(3-isobutyl-1-isopropyl-azetidin-3-yl)oxy-2-(2-isopropyl-5-methyl-1,2,4-triazol-3-yl)-5,6-dihydroimidazo[1,2-d][1,4]benzoxazepine] | 8.67 | 32.1
2 | Cc1nc(-c2cn3c(n2)-c2cc([C@H](C)N4CCN(C(C)(C)C)CC4)ncc2OCC3)n(C(C)C)n1 [Example 303, (S)-10-(1-(4-tert-butylpiperazin-1-yl)ethyl)-2-(1-isopropyl-3-methyl-1H-1,2,4-triazol-5-yl)-5,6-dihydroimidazo[1,2-d]pyrido[4,3-f][1,4]oxazepine] | 1.92 | 113
3 | CCN1CCC(C2CCCN2c2ccc3c(c2)OCCn2cc(-c4nc(C)nn4C(C)C)nc2-3)CC1 (centres unmarked) [Example 304, 9-[2-(1-ethyl-4-piperidyl)pyrrolidin-1-yl]-2-(2-isopropyl-5-methyl-1,2,4-triazol-3-yl)-5,6-dihydroimidazo[1,2-d][1,4]benzoxazepine] | 0.52 | 36.4
4 | Cc1nc(-c2cn3c(n2)-c2cc([C@@H](C)N4CCN(C(C)(C)C)CC4)ncc2OCC3)n(C(C)C)n1 [Example 305, (R)-10-(1-(4-tert-butylpiperazin-1-yl)ethyl)-2-(1-isopropyl-3-methyl-1H-1,2,4-triazol-5-yl)-5,6-dihydroimidazo[1,2-d]pyrido[4,3-f][1,4]oxazepine] | 2.81 | 28.6
5 | Cc1nc(-c2cn3c(n2)-c2ccc(N4CCCC4C4CCN(S(C)(=O)=O)CC4)cc2OCC3)n(C(C)C)n1 (centres unmarked) [Example 306, 2-(2-isopropyl-5-methyl-1,2,4-triazol-3-yl)-9-[2-(1-methylsulfonyl-4-piperidyl)pyrrolidin-1-yl]-5,6-dihydroimidazo[1,2-d][1,4]benzoxazepine] | 1.18 | 12.4
6 | Cc1nc(-c2cn3c(n2)-c2ccc(N4CCCC4C4CCCN(C)C4)cc2OCC3)n(C(C)C)n1 (centres unmarked) [Example 311, 2-(2-isopropyl-5-methyl-1,2,4-triazol-3-yl)-9-[2-(1-methyl-3-piperidyl)pyrrolidin-1-yl]-5,6-dihydroimidazo[1,2-d][1,4]benzoxazepine] | 1.35 | 46.8
7 | Cc1nc(-c2cn3c(n2)-c2ccc(N4CCCC45CCCN(C)C5)cc2OCC3)n(C(C)C)n1 (centres unmarked) [Example 314, 2-(2-isopropyl-5-methyl-1,2,4-triazol-3-yl)-9-(7-methyl-1,7-diazaspiro[4.5]decan-1-yl)-5,6-dihydroimidazo[1,2-d][1,4]benzoxazepine] | 0.335 | 50.1
8 | Cc1nc(-c2cn3c(n2)-c2cc(-c4ccnn4[C@@H]4CCCN(C(C)C)C4)c(F)cc2OCC3)n(C(C)C)n1 [Example 315, (R)-9-fluoro-2-(1-isopropyl-3-methyl-1H-1,2,4-triazol-5-yl)-10-(1-(1-isopropylpiperidin-3-yl)-1H-pyrazol-5-yl)-5,6-dihydrobenzo[f]imidazo[1,2-d][1,4]oxazepine] | 0.44 | 25.8
9 | Cc1nc(-c2cn3c(n2)-c2cc(-c4ccnn4[C@H]4CCCN(C(C)C)C4)c(F)cc2OCC3)n(C(C)C)n1 [Example 316, (S)-9-fluoro-2-(1-isopropyl-3-methyl-1H-1,2,4-triazol-5-yl)-10-(1-(1-isopropylpiperidin-3-yl)-1H-pyrazol-5-yl)-5,6-dihydrobenzo[f]imidazo[1,2-d][1,4]oxazepine] | < 0.035 | 214
10 | Cc1nc(-c2cn3c(n2)-c2ccc(-c4cnc(C)n4C4CCCN(C(C)C)C4)cc2OCC3)n(C(C)C)n1 (centres unmarked) [Example 317, 2-(2-isopropyl-5-methyl-1,2,4-triazol-3-yl)-9-[3-(1-isopropyl-3-piperidyl)-2-methyl-imidazol-4-yl]-5,6-dihydroimidazo[1,2-d][1,4]benzoxazepine] | 6.51 | 22.3
11 | Cc1nc(-c2cn3c(n2)-c2ccc(N4CCCC45CCCN(C)C5)cc2OCC3)n(C(C)C)n1 (centres unmarked) [Example 318, 2-(2-isopropyl-5-methyl-1,2,4-triazol-3-yl)-9-(7-methyl-1,7-diazaspiro[4.5]decan-1-yl)-5,6-dihydroimidazo[1,2-d][1,4]benzoxazepine] | 0.178 | 29.4
12 | Cc1nc(-c2cn3c(n2)-c2ccc(N4CCCC4C4CCCN(C)C4)cc2OCC3)n(C(C)C)n1 (centres unmarked) [Example 319, 2-(2-isopropyl-5-methyl-1,2,4-triazol-3-yl)-9-[2-(1-methyl-3-piperidyl)pyrrolidin-1-yl]-5,6-dihydroimidazo[1,2-d][1,4]benzoxazepine] | 2.81 | 26.3
13 | Cc1nc(-c2cn3c(n2)-c2ccc(N4CCCC45CCCN(C)C5)cc2OCC3)n(C(C)C)n1 (centres unmarked) [Example 320, 2-(2-isopropyl-5-methyl-1,2,4-triazol-3-yl)-9-(7-methyl-1,7-diazaspiro[4.5]decan-1-yl)-5,6-dihydroimidazo[1,2-d][1,4]benzoxazepine] | 0.236 | 54.6
14 | Cc1nc(-c2cn3c(n2)-c2ccc(N4CCCC4C4CCCN(C)C4)cc2OCC3)n(C(C)C)n1 (centres unmarked) [Example 321, 2-(2-isopropyl-5-methyl-1,2,4-triazol-3-yl)-9-[2-(1-methyl-3-piperidyl)pyrrolidin-1-yl]-5,6-dihydroimidazo[1,2-d][1,4]benzoxazepine] | 2.52 | 22.1
15 | Cc1nc(-c2cn3c(n2)-c2ccc(N4CCCC4C4CCCN(C)C4)cc2OCC3)n(C(C)C)n1 (centres unmarked) [Example 322, 2-(2-isopropyl-5-methyl-1,2,4-triazol-3-yl)-9-[2-(1-methyl-3-piperidyl)pyrrolidin-1-yl]-5,6-dihydroimidazo[1,2-d][1,4]benzoxazepine] | 5.68 | 31.9
16 | Cc1nc(-c2cn3c(n2)-c2ccc(N4CCCC4C4CCCCN4C)cc2OCC3)n(C(C)C)n1 (centres unmarked) [Example 323, 2-(2-isopropyl-5-methyl-1,2,4-triazol-3-yl)-9-[2-(1-methyl-2-piperidyl)pyrrolidin-1-yl]-5,6-dihydroimidazo[1,2-d][1,4]benzoxazepine] | 1.94 | 11.7
17 | Cc1nc(-c2cn3c(n2)-c2ccc(N4CCCC4C4CCCCN4C)cc2OCC3)n(C(C)C)n1 (centres unmarked) [Example 324, 2-(2-isopropyl-5-methyl-1,2,4-triazol-3-yl)-9-[2-(1-methyl-2-piperidyl)pyrrolidin-1-yl]-5,6-dihydroimidazo[1,2-d][1,4]benzoxazepine] | 139 | 15
18 | Cc1nc(-c2cn3c(n2)-c2ccc(N4CCC[C@H]4CN4CCCC4)cc2OCC3)n(C(C)C)n1 [Example 325, (S)-2-(1-isopropyl-3-methyl-1H-1,2,4-triazol-5-yl)-9-(2-(pyrrolidin-1-ylmethyl)pyrrolidin-1-yl)-5,6-dihydrobenzo[f]imidazo[1,2-d][1,4]oxazepine] | 0.313 | 20.2
19 | Cc1nc(-c2cn3c(n2)-c2ccc(N4CCC[C@@H]4CN4CCCC4)cc2OCC3)n(C(C)C)n1 [Example 326, (R)-2-(1-isopropyl-3-methyl-1H-1,2,4-triazol-5-yl)-9-(2-(pyrrolidin-1-ylmethyl)pyrrolidin-1-yl)-5,6-dihydrobenzo[f]imidazo[1,2-d][1,4]oxazepine] | 0.416 | 52.9
